The values that follow are results of earlier work, collected in US20050202550A1, “Crystal structure of 3', 5'-cyclic nucleotide phosphodiesterase (PDE10A) and uses thereof” (Pfizer Inc, priority 2004, published 2005).

In the series the target is T1, PDE10 (Mus musculus, UniProt Q8CA95).
T1 sequence (Q8CA95 1-779 isoform Q8CA95-2): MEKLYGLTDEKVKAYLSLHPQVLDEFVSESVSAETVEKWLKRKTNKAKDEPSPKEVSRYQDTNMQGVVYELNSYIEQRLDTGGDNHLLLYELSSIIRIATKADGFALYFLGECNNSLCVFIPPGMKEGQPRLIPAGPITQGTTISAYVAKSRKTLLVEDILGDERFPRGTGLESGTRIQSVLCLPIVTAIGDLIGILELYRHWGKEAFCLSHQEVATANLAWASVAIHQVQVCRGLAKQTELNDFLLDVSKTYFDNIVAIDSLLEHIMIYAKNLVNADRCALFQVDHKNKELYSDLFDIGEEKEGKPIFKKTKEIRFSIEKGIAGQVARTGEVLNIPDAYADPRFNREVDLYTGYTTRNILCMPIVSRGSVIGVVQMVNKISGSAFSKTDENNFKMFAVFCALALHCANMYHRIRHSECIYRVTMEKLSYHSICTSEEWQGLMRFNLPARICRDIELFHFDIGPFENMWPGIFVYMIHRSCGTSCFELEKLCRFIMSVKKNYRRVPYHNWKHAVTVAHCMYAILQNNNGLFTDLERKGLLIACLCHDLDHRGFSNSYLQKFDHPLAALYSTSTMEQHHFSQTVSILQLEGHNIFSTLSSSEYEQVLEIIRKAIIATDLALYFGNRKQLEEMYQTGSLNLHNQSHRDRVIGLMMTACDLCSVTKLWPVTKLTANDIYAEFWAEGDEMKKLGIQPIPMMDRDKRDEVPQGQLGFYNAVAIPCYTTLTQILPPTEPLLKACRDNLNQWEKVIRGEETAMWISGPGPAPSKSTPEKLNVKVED
Particulars: mouse PDE10A1.

Usually Km stands for the concentration of substrate that gives half-maximal velocity. In the case of `Nc1nc2c(ncn2[C@@H]2O[C@@H]3COP(=O)(O)O[C@H]3[C@H]2O)c(=O)[nH]1` [cGMP], the “Vmax for cGMP over cAMP” value (ratio of Vmax cGMP to cAMP) was “approximately 5 fold”. Further, the Km (substrate, read-out: Km (affinity of the PDE10 for substrate)) is 3 µM.
